Data from patent publication US7968713B2, “Method of synthesizing quinoxaline derivative by microwave irradiation” (Nihon University, priority 2005, dated 2011).

Legend:
HepG2 cells = assay: Hypoxic selective cytotoxicity test with respect to HepG2 cells (colony forming ratio); assay type: cell-based, human; conditions: 20 μM exposed for six hours, cultivated for seven days; for Activity (Surviving fraction) (%) hypoxia: hypoxic state (hypoxia); for Activity (Surviving fraction) (%) noroxia: usual oxygen state (noroxia)
Experimental: (Hypoxic Selective Cytotoxicity Test with Respect to HepG2 Cells)
A cytotoxicity reinforcing effect on a hypoxic condition was tested using HepG2 cells which were human liver cancer cells. In a usual oxygen state (noroxia) and a hypoxic state (hypoxia), 20 μM of each quinoxaline 1,4-dioxide derivative shown in Table 1 (Compounds 1 to 8 including R1 to R6 shown in Table 1 in the above general formula (3)) was exposed for six hours, and cultivated for seven days, and then colony forming ratios were compared. It is to be noted that in Table 1, “Ph-NO2” is a group in which a nitro group is introduced into a para position of a benzoyl group.

| Structure (SMILES) | melting point | Activity (Surviving fraction) (%) hypoxia (HepG2 cells) [%] | Activity (Surviving fraction) (%) noroxia (HepG2 cells) [%] |
| --- | --- | --- | --- |
| O=C(c1ccccc1)c1c(-c2ccccc2)[n+]([O-])c2cc(F)c(F)cc2[n+]1[O-] [Example 2, 2-benzoyl-6,7-difluoro-3-phenylquinoxaline 1,4-dioxide] | 249 to 251 °C | – | – |
| Cc1c(C(=O)c2ccc([N+](=O)[O-])cc2)[n+]([O-])c2cc(F)c(F)cc2[n+]1[O-] [Compound 8, 6,7-difluoro-3-methyl-2-(41-nitrobenzoyl)-quinoxaline 1,4-dioxide] | 232 to 233 °C | 1 | 44 |
| Cc1c(C(=O)c2ccc([N+](=O)[O-])cc2)[n+]([O-])c2cc(Cl)c(Cl)cc2[n+]1[O-] [Compound 7, 6,7-dichloro-3-methyl-2-(4′-nitrobenzoyl)-quinoxaline 1,4-dioxide] | 215 to 217 °C | 6 | 73 |

Now from value to compound, other results behind:

| melting point | Structure (SMILES) | Activity (Surviving fraction) (%) hypoxia (HepG2 cells) [%] | Activity (Surviving fraction) (%) noroxia (HepG2 cells) [%] |
| --- | --- | --- | --- |
| 286 °C (dec.) | COc1cc2c(cc1OC)[n+]([O-])c(-c1ccccc1)c(C(=O)c1ccccc1)[n+]2[O-] [Example 3, 2-benzoyl-6,7-dimethoxy-3-phenylquinoxaline 1,4-dioxide] | – | – |
| 254 °C | COc1cc2c(cc1OC)[n+]([O-])c(C(C)=O)c(C)[n+]2[O-] [Example 5, 2-acetyl-6,7-dimethoxy-3-methylquinoxaline 1,4-dioxide] | – | – |
